Data from paper PMC12439480, “Dimeric CCK2R radiotheranostic tracers synergize with mTOR inhibition for enhanced tumor therapy” (Theranostics, 2025).
Numbered stars: 1 amine (or outer) side, 2 acyl side, 3 side chain; on linkers, the order of the positions; unused ones are H or OH. Square brackets hold non-standard residues; d marks the D form. Peptide text beside a SMILES is read from it. * marks the point of attachment. DOTA = O=C(O)CN1CCN(CC(=O)O)CCN(CC(=O)*)CCN(CC(=O)O)CC1; d(γGlu) = O=C(O)[C@@H](CCC(=O)[*:2])N[*:1]; 1Nal = N[C@@H](Cc1cccc2ccccc12)C(=O)O; NMeNle = CCCC[C@H](NC)C(=O)O; PEG4 = NCCOCCOCCOCCOCCC(=O)O

Experiment: in vivo
Design: species or system BALB/c nude mice
Conditions: mouse; for tissue to tissue ratio at 0.5 h / tissue to tissue ratio at 1 h / tissue to tissue ratio at 2 h: female, BALB/c nude, iv, 3.7 MBq, total radioactivity
Protocol: To complement the imaging studies, biodistribution experiments were performed. AR42J tumor-bearing mice were intravenously injected with 3.7 MBq of [^68Ga]Ga-DOTA-CCK2R-dimer (≈ 120 pmol) or [^68Ga]Ga-DOTA-CCK-66 (≈ 210 pmol) (dissolved in 200 μL of saline; n = 3/group). The mice were sacrificed at 30, 60, and 120 min post-injection, and the tissues of interest were excised, weighed, and analyzed for radioactivity using a γ-counter. For blocking studies, a 400-fold excess of the lead compound was co-administered, and the mice were sacrificed at 1 h post-injection.
All animal studies were approved by the Ethics Committee of Fudan University
Shanghai Cancer Center (No. FUSCC-IACUC- S2023- 0003). Five-week-old female
BALB/c nude mice were purchased from Shanghai SLAC Laboratory Animal
Company. To establish cell-derived xenograft (CDX) models, 1 × 10⁶ AR42J cells
(100 μL) were subcutaneously inoculated into the right shoulder of each mouse. […]

[1] = Tumor-to-Large intestine ratio (T/B)
[2] = Tumor-to-Small intestine ratio (T/B)

Q: Which tissue to tissue ratio at 0.5 h (Tumor-to-Bladder ratio (T/B)) does the source give for `CCCC[C@@H](C(=O)N[C@@H](CC(=O)O)C(=O)N[C@@H](Cc1cccc2ccccc12)C(N)=O)N(C)C(=O)[C@H](Cc1c[nH]c2ccccc12)NC(=O)CCOCCOCCOCCOCCNC(=O)CC[C@@H](NC(=O)CN1CCN(CC(=O)O)CCN(CC(=O)O)CCN(CC(=O)O)CC1)C(=O)O` [[68Ga]Ga-DOTA-CCK-66, metal not drawn, reference compound] ({DOTA-d(γGlu)-PEG4}-W[NMeNle]D[1Nal]-NH2) here?
A: 1.95 ± 0.96

Q: And the tissue to tissue ratio at 1 h (Tumor-to-Bladder ratio (T/B))?
A: 4.41 ± 1.16

Q: And the tissue to tissue ratio at 2 h (Tumor-to-Bladder ratio (T/B))?
A: 7.5 ± 2.91

Q: What about the tissue to tissue ratio at 0.5 h (Tumor-to-Blood ratio (T/B)) of the same compound?
A: 2.48 ± 0.27

Q: And the tissue to tissue ratio at 1 h (Tumor-to-Blood ratio (T/B))?
A: 6.36 ± 1.3

Q: And the tissue to tissue ratio at 2 h (Tumor-to-Blood ratio (T/B))?
A: 18.1 ± 14.9

Q: And the tissue to tissue ratio at 0.5 h (Tumor-to-Bone ratio (T/B))?
A: 29.9 ± 14.1

Q: What about the tissue to tissue ratio at 1 h (Tumor-to-Bone ratio (T/B)) of the same compound?
A: 34.9 ± 29.4

Q: What about the tissue to tissue ratio at 2 h (Tumor-to-Bone ratio (T/B)) of the same compound?
A: 98 ± 19.9

Q: What about the tissue to tissue ratio at 0.5 h (Tumor-to-Brain ratio (T/B)) of the same compound?
A: 72.8 ± 22.6

Q: And the tissue to tissue ratio at 1 h (Tumor-to-Brain ratio (T/B))?
A: 91.4 ± 5.94

Q: And the tissue to tissue ratio at 2 h (Tumor-to-Brain ratio (T/B))?
A: 141 ± 66.3

Q: What about the tissue to tissue ratio at 0.5 h (Tumor-to-Heart ratio (T/B)) of the same compound?
A: 10.9 ± 1.72

Q: And the tissue to tissue ratio at 1 h (Tumor-to-Heart ratio (T/B))?
A: 8.93 ± 4.2

Q: What about the tissue to tissue ratio at 2 h (Tumor-to-Heart ratio (T/B)) of the same compound?
A: 33.2 ± 30.2

Q: What about the tissue to tissue ratio at 0.5 h (Tumor-to-Kidney ratio (T/B)) of the same compound?
A: 1.8 ± 0.2

Q: And the tissue to tissue ratio at 1 h (Tumor-to-Kidney ratio (T/B))?
A: 1.1 ± 0.47

Q: What about the tissue to tissue ratio at 2 h (Tumor-to-Kidney ratio (T/B)) of the same compound?
A: 1.67 ± 0.79

Q: What about the tissue to tissue ratio at 0.5 h [1] of the same compound?
A: 5.91 ± 1.81

Q: And the tissue to tissue ratio at 1 h [1]?
A: 13.3 ± 6.96

Q: And the tissue to tissue ratio at 2 h [1]?
A: 26.2 ± 5.5

Q: What about the tissue to tissue ratio at 0.5 h (Tumor-to-Liver ratio (T/B)) of the same compound?
A: 4.12 ± 0.63

Q: And the tissue to tissue ratio at 1 h (Tumor-to-Liver ratio (T/B))?
A: 4.3 ± 0.38

Q: And the tissue to tissue ratio at 2 h (Tumor-to-Liver ratio (T/B))?
A: 13.2 ± 7.75

Q: And the tissue to tissue ratio at 0.5 h (Tumor-to-Lung ratio (T/B))?
A: 3.22 ± 0.56

Q: What about the tissue to tissue ratio at 1 h (Tumor-to-Lung ratio (T/B)) of the same compound?
A: 7.32 ± 5.81

Q: And the tissue to tissue ratio at 2 h (Tumor-to-Lung ratio (T/B))?
A: 11.7 ± 2.81

Q: What about the tissue to tissue ratio at 0.5 h (Tumor-to-Muscle ratio (T/M)) of the same compound?
A: 6.69 ± 2.78

Q: What about the tissue to tissue ratio at 1 h (Tumor-to-Muscle ratio (T/M)) of the same compound?
A: 10.2 ± 1.41

Q: And the tissue to tissue ratio at 2 h (Tumor-to-Muscle ratio (T/M))?
A: 15.2 ± 6.94

Q: And the tissue to tissue ratio at 0.5 h [2]?
A: 5.83 ± 2.57

Q: What about the tissue to tissue ratio at 1 h [2] of the same compound?
A: 7.43 ± 1.49

Q: And the tissue to tissue ratio at 2 h [2]?
A: 25.7 ± 17.9

Q: What about the tissue to tissue ratio at 0.5 h (Tumor-to-Spleen ratio (T/B)) of the same compound?
A: 4.46 ± 1.21

Q: What about the tissue to tissue ratio at 1 h (Tumor-to-Spleen ratio (T/B)) of the same compound?
A: 7 ± 2.74

Q: What about the tissue to tissue ratio at 2 h (Tumor-to-Spleen ratio (T/B)) of the same compound?
A: 24.9 ± 10.9

Q: And the tissue to tissue ratio at 0.5 h (Tumor-to-Stomach ratio (T/B))?
A: 4.5 ± 1.83

Q: And the tissue to tissue ratio at 1 h (Tumor-to-Stomach ratio (T/B))?
A: 5.06 ± 2.32

Q: And the tissue to tissue ratio at 2 h (Tumor-to-Stomach ratio (T/B))?
A: 6 ± 1.93

Q: What about the tissue uptake at 0.5 h (Bladder uptake) of the same compound?
A: 1.9 ± 1.13 %ID/g

Q: And the tissue uptake at 1 h (Bladder uptake)?
A: 1.59 ± 0.47 %ID/g

Q: And the tissue uptake at 2 h (Bladder uptake)?
A: 1.37 ± 0.43 %ID/g

Q: What about the tissue uptake at 0.5 h (Blood uptake) of the same compound?
A: 1.22 ± 0.15 %ID/g

Q: What about the tissue uptake at 2 h (Blood uptake) of the same compound?
A: 0.69 ± 0.3 %ID/g

Q: What about the tissue uptake at 0.5 h (Bone uptake) of the same compound?
A: 0.12 ± 0.05 %ID/g

Q: What about the tissue uptake at 2 h (Bone uptake) of the same compound?
A: 0.1 ± 0.04 %ID/g

Q: And the tissue uptake at 0.5 h (Brain uptake)?
A: 0.03 ± 0.01 %ID/g

Q: What about the tissue uptake at 2 h (Brain uptake) of the same compound?
A: 0.07 ± 0.01 %ID/g

Q: What about the tissue uptake at 0.5 h (Heart uptake) of the same compound?
A: 0.28 ± 0.04 %ID/g

Q: What about the tissue uptake at 2 h (Heart uptake) of the same compound?
A: 0.48 ± 0.31 %ID/g

Q: What about the tissue uptake at 0.5 h (Kidney uptake) of the same compound?
A: 1.68 ± 0.19 %ID/g

Q: And the tissue uptake at 1 h (Kidney uptake)?
A: 7.52 ± 1.95 %ID/g

Q: And the tissue uptake at 2 h (Kidney uptake)?
A: 6.4 ± 2.54 %ID/g

Q: What about the tissue uptake at 0.5 h (Large intestine uptake) of the same compound?
A: 0.55 ± 0.19 %ID/g

Q: What about the tissue uptake at 2 h (Large intestine uptake) of the same compound?
A: 0.37 ± 0.06 %ID/g

Q: And the tissue uptake at 0.5 h (Liver uptake)?
A: 0.74 ± 0.1 %ID/g

Q: What about the tissue uptake at 1 h (Liver uptake) of the same compound?
A: 1.57 ± 0.22 %ID/g

Q: What about the tissue uptake at 2 h (Liver uptake) of the same compound?
A: 0.54 ± 0.17 %ID/g

Q: And the tissue uptake at 0.5 h (Lung uptake)?
A: 0.95 ± 0.14 %ID/g

Q: What about the tissue uptake at 1 h (Lung uptake) of the same compound?
A: 1.25 ± 0.6 %ID/g

Q: And the tissue uptake at 2 h (Lung uptake)?
A: 0.87 ± 0.31 %ID/g

Q: What about the tissue uptake at 0.5 h (Muscle uptake) of the same compound?
A: 0.52 ± 0.27 %ID/g

Q: And the tissue uptake at 2 h (Muscle uptake)?
A: 0.72 ± 0.36 %ID/g

Q: What about the tissue uptake at 0.5 h (Small intestine uptake) of the same compound?
A: 0.57 ± 0.21 %ID/g

Q: What about the tissue uptake at 2 h (Small intestine uptake) of the same compound?
A: 0.5 ± 0.27 %ID/g

Q: And the tissue uptake at 0.5 h (Spleen uptake)?
A: 0.71 ± 0.2 %ID/g

Q: And the tissue uptake at 2 h (Spleen uptake)?
A: 0.45 ± 0.23 %ID/g

Q: What about the tissue uptake at 0.5 h (Stomach uptake) of the same compound?
A: 0.74 ± 0.27 %ID/g

Q: What about the tissue uptake at 2 h (Stomach uptake) of the same compound?
A: 1.63 ± 0.27 %ID/g

Q: What about the tissue uptake at 0.5 h (Tumor uptake) of the same compound?
A: 3 ± 0.63 %ID/g

Q: What about the tissue uptake at 2 h (Tumor uptake) of the same compound?
A: 9.53 ± 2.38 %ID/g
